Data set [1] addresses T1, NLRP3 (Homo sapiens, UniProt Q96P20). In words: Human whole blood IL-1β release assay. The class given is cell-based. On the set-up: Human whole blood in Li-heparin tubes was obtained from healthy donors; from tissue; host or cells: human whole blood from healthy donors. The following applies: LPS 1 μg/ml, nigericin 10 μM, IL-1β AlphaLisa, read-out: Human whole blood IL-1ß Assay IC50. As to the method:
For systemic delivery, the ability to inhibit NLRP3 when the compounds are present within the bloodstream is of great importance. For this reason, the NLRP3 inhibitory activity of a number of compounds in human whole blood was investigated in accordance with the following protocol.
Human whole blood in Li-heparin tubes was obtained from healthy donors from a volunteer donor panel. • 1. Plate out 80 μl of whole blood containing 1 μg/ml of LPS in 96-well, clear bottom cell culture plate (Corning #3585) • 2. Add 10 μl compound (8 points half-log dilution with 10 μM top dose) or vehicle (DMSO 0.1% FAC) to the appropriate wells • 3. Incubate for 3 hours at 37° C., 5% CO2 • 4. Add 10 μl nigericin (Sigma #N7143) (10 μM FAC) to all wells • 5. Incubate for 1 hr at 37° C., 5% CO2 • 6. At the end of the incubation period, spin plates at 300xg for 5 mins to pellet cells and remove 20 μl of supernatant and add to 96-well v-bottom plates for IL-1β analysis (note: these plates containing the supernatants can be stored at −80° C. to be analysed at a later date) • 7. IL-1β was measured according to the manufacturer protocol (Perkin Elmer-AlphaLisa IL-1 Kit AL220F-5000) • 8. IC50 data is fitted to a non-linear regression equation (log inhibitor vs response-variable slope 4-parameters)

Data set [2] can be described thus: Metabolic stability in human hepatocytes. The data set is classed as in vitro ADME. As to the method:
Biological materials. Cryopreserved hepatocytes [mouse, rat, rabbit, monkey and human (male and female; mixed)] are obtained. Viability of hepatocytes after reconstitution is at least 80% throughout the study. Ready-to-use rat/human HepatoPac® cultures [long-term hepatocyte co-cultures; pooled (n=5 for male and n=5 for female for human)] with stromal mouse fibroblasts (negative control; pooled) with the plates for incubations, application medium and maintenance medium are acquired.
Metabolism by suspended hepatocytes. Primary pooled cryopreserved hepatocytes are reconstituted in pre-warmed William's E media containing 10% FCS, 0.05 mg/mL streptomycin and 50 U/mL penicillin and 0.4 mM L-glutamine; and 0.01 mg/mL gentamicin, 0.048 mg/mL hydrocortisone and 0.004 mg/mL insulin, to a final suspension density of 1×10^6 cells/mL. The incubation was performed fully automatically with Liquid Handling System (Tecan) equipped with a CO2 incubator with an orbital shaker. After the addition of a test compound at e.g. 1 μM to the wells (1×10^5 cells/well), the 96-well hepatocyte suspension culture plates are incubated in a 5% CO2 at 37° C. Samples are quenched by addition of acetonitrile (including an internal standard) to the incubation well at the designated time points up to 2 h.
Metabolism by HepatoPac®. […]
Samples are then centrifuged appropriately and the supernatant analyzed by LC-MS/MS. […]

The target of data set [3] is T2, hERG cardiac potassium channel (Homo sapiens, UniProt Q12809).
T2 construct: host or cells: CHO crelox hERG cell line (Chinese hamster cells)
Kind of data set: hERG screening assay (automated patch clamp, CHO-hERG cells). The data set is classed as cell-based. To be noted: CHO crelox hERG cell line (CHO cells that express hERG), whole-cell patch clamp, 35-37° C. The source says: In the drug development process of small molecules, one of the most frequent adverse side effects, leading to the failure of drugs, is the cardiac arrhythmias. Such failure is often related to the capacity of the drug to inhibit the human ether-à-go-go-related gene (hERG) cardiac potassium channel. Having no or low inhibition of the hERG cardiac potassium channel is therefore considered as beneficial.
The CHO crelox hERG cell line (ATCC reference Nr. PTA-6812, female Chinese hamster cells) was generated and validated at Roche. Ready-to-use frozen instant CHO-hERG cells were cryopreserved at Evotec (Germany) and used directly in the experiments.
The extracellular solution contains (in mM): NaCl 150; KCl 4; CaCl2) 1; MgCl2 1; HEPES 10; pH 7.2-7.4 with NaOH, osmolarity 290-330 mOsm. […]
The effects of a compound on hERG K+-currents parameters will be evaluated at 2 concentrations in at least 4 cells.
The hERG test is performed using automated patch clamp system SynchroPatch® 384 (Nanion Technologies GmbH, Germany). K+ currents are measured with the patch-voltage-clamp technique in the whole-cell configuration at 35-37° C. […]
The amplitudes of IKhERG were recorded in each concentration of drug and they were compared to the vehicle control values (taken as 100%) to define fractional blocks. […]

Data set [4] deals with T1, NLRP3. In words: THP-1 cells pyroptosis assay. The data set is classed as cell-based. To be noted: LPS 1 μg/ml, nigericin 5 μM, resazurin readout. The protocol:
THP-1 cells (ATCC #TIB-202) were grown in RPMI containing L-glutamine (Gibco #11835) supplemented with 1 mM sodium pyruvate (Sigma #S8636) and penicillin (100 units/ml)/streptomycin (0.1 mg/ml) (Sigma #P4333) in 10% Fetal Bovine Serum (FBS) (Sigma #F0804). The cells were routinely passaged and grown to confluency (˜10^6 cells/ml). On the day of the experiment, THP-1 cells were harvested and resuspended into RPMI medium (without FBS). The cells were then counted and viability (>90%) checked by Trypan blue (Sigma #T8154). Appropriate dilutions were made to give a concentration of 625,000 cells/ml. To this diluted cell solution was added LPS (Sigma #L4524) to give a 1 μg/ml Final Assay Concentration (FAC). 40 μl of the final preparation was aliquoted into each well of a 96-well plate. The plate thus prepared was used for compound screening.
The following method step-by-step assay was followed for compound screening. • 1. Seed THP-1 cells (25,000 cells/well) containing 1.0 μg/ml LPS in 40 μl of RPMI medium (without FBS) in 96-well, black walled, clear bottom cell culture plates coated with poly-D-lysine (VWR #734-0317) • 2. Add 5 μl compound (8 points half-log dilution, with 10 μM top dose) or vehicle (DMSO 0.1% FAC) to the appropriate wells • 3. Incubate for 3 hours at 37° C., 5% CO2 • 4. Add 5 μl nigericin (Sigma #N7143) (FAC 5 μM) to all wells • 5. Incubate for 1 hr at 37° C., 5% CO2 • 6. At the end of the incubation period, spin plates at 300xg for 3 mins and remove supernatant • 7. Then add 50 μl of resazurin (Sigma #R7017) (FAC 100 μM resazurin in RPMI medium without FBS) and incubate plates for a further 1-2 hours at 37° C. and 5% CO2 • 8. Plates were read in an Envision reader at Ex 560 nm and Em 590 nm • 9. IC50 data is fitted to a non-linear regression equation (log inhibitor vs response-variable slope 4-parameters)
For orientation: The colour change of resazurin is a common sign of viable cells or microbes.

These results are taken from patent US20260176250A1, “TRIAZINONE DERIVATIVES AS NLRP3 INHIBITORS” (Hoffmann-La Roche Inc., priority 2022, published 2026).

As usually defined, the IC50 is the concentration needed to halve the response being measured. Usually IC20 stands for the concentration needed for an effect of 20%.

T1 sequence (Q96P20 whole entry): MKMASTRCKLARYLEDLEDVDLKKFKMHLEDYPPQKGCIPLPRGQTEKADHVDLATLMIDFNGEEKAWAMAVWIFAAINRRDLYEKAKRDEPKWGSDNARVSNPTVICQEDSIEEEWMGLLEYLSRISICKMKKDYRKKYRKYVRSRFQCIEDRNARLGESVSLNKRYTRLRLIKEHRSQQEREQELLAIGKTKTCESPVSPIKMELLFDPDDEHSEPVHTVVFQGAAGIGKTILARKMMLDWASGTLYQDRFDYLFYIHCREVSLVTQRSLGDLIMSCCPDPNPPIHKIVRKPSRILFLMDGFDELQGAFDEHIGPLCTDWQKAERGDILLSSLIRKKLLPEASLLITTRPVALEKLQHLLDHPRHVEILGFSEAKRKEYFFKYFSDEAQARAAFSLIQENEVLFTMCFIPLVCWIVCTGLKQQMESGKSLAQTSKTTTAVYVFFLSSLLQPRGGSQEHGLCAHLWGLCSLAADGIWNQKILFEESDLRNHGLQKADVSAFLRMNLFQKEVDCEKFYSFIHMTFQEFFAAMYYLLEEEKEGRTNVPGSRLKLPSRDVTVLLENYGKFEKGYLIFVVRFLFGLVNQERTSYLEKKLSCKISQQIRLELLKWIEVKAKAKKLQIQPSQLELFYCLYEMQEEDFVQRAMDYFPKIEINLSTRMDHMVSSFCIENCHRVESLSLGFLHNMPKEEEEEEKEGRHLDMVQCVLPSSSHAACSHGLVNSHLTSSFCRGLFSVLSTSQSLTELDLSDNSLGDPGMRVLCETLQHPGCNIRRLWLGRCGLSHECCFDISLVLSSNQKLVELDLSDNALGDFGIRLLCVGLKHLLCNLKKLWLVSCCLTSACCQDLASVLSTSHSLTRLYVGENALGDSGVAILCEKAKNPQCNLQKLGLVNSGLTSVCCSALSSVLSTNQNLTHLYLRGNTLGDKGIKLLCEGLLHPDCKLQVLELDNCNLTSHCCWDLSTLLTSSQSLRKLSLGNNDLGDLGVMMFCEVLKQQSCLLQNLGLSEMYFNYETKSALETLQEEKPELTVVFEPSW
T2 sequence (Q12809 whole entry): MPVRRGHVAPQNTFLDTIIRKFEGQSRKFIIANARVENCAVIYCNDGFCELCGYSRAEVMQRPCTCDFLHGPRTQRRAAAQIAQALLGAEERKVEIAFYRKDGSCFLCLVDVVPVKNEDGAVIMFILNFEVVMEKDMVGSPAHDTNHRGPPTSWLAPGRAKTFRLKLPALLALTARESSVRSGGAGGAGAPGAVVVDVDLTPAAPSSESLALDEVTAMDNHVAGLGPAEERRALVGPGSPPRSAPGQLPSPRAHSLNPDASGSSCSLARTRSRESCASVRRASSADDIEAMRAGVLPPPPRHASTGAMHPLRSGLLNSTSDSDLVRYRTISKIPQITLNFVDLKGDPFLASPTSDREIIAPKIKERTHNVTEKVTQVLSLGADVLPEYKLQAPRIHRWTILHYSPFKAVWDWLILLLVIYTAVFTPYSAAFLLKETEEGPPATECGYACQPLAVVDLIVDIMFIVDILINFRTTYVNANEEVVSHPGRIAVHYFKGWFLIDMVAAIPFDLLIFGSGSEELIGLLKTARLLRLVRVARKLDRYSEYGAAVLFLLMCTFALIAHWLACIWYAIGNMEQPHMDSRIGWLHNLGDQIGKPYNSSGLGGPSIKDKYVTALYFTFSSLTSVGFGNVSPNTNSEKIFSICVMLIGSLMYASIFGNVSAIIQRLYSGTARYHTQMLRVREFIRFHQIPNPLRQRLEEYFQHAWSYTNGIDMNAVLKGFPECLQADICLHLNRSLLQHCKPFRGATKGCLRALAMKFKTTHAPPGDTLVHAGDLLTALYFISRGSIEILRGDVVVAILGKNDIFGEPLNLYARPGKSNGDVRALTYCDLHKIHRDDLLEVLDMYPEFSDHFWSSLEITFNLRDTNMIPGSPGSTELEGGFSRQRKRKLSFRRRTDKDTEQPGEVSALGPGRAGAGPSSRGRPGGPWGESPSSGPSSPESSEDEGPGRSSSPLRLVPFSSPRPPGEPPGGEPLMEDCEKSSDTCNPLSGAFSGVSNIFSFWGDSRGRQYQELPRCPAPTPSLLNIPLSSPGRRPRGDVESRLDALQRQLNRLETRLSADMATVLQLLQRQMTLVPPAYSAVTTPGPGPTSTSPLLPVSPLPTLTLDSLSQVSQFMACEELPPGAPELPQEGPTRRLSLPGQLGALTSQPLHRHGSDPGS

For the molecule `CCN1CCC[C@@H](Nc2nnc(-c3ccc4c(c3O)CCC4)n(C)c2=O)C1` [Example 1, 6-[[(3R)-1-Ethyl-3-piperidyl]amino]-3-(4-hydroxyindan-5-yl)-4-methyl-1,2,4-triazin-5-one], the IC50 in data set [1] was 8 nM; in data set [4] it was 1.5 nM. For the same molecule, the “Clint at 1 μM” value in data set [2] was less than 0.2 μl/min/10E6 cells. This molecule also came in with an IC20 in data set [3] of more than 10000 nM.

`CCN1CCC[C@@H](N(C)c2nnc(-c3ccc4c(c3O)CCC4)n(C)c2=O)C1` [Example 3, 6-[[(3R)-1-Ethyl-3-piperidyl]-methyl-amino]-3-(4-hydroxyindan-5-yl)-4-methyl-1,2,4-triazin-5-one]: the IC50 in data set [1] is 26 nM; in data set [4], 13 nM.

Regarding `CCN1CCC[C@@H](Nc2nnc(-c3ccc4c(c3O)CC4)n(C)c2=O)C1` [Example 2], the values for the IC50 in data set [1] and in data set [4] were 10 nM and 5.8 nM, respectively.
